Reference: patent US20060229358A1, “Pharmaceutical composition containing flavonoids” (Taipei Medical University, priority 2005, published 2006)
Like-named read-outs stand apart in the source and are kept apart here.

Experiments:
PDE4 = tested on: T1, PDE4; assay: Inhibition of cyclic nucleotide PDE activity (Assay I), PDE4, incl. Lineweaver-Burk analysis; assay type: biochemical, guinea pig; details: for IC50: mean ± S.E.M. (n), read-out: IC50 on phosphodiesterase isozyme 4
T1 construct: IC50 on phosphodiesterase isozyme 4; other: mean ± S.E.M. (n)
Description: (§1) Under a protocol approved by the Animal Care and Use Committee of Taipei Medical University, five male guinea pigs (Hartley), weighing 500-600 g, were sacrificed. The lungs (15 g) or hearts (4 g) taken therefrom were chopped into small pieces and homogenized with a glass/teflon homogenizer (Glas-Col, Terre Haute, Ind., USA) in 10 volumes of cold medium (pH 6.5) containing 20 mM Bis-Tris, 2 mM benzamidine, 2 mM EDTA, 50 mM sodium chloride, 0.1 mM phenylmethanesulfonyl fluoride (PMSF), and 1 mM dithiothreitol. At 4° C., the homogenate was centrifuged at 170 g for 15 min, and the supernatant thereof was then re-centrifuged at 40,000 g for 30 min. […] The column was washed with two bed volumes of homogenate buffer to remove unbound material, where the resin beads therein will bind with proteins, such as PDE proteins. Proteins bound to the Q-sepharose beads were eluted with various concentrations (0.23, 0.34, 0.44, 0.69, and 1.00 M) of NaCl dissolved in homogenate buffer (for each concentration, 40-50 mL elution buffer were applied) at a flow rate of 30 ml/h. Fractions (3 ml each) were collected, and ethylene glycol (EG) was added thereto until a final concentration of 30% (v/v). And then the samples were frozen at −70° C.
(§2) The activities of PDE1-5 in the homogenate were measured with a two-step procedure according to the method of Thompson and Appleman, using cAMP with [^3H]-cAMP or cGMP with [^3 H]-cGMP as substrates. The PDE enzyme prepared (25 μl) with 10 μl inhibitor or the solvents therefor was incubated for 30 min at 37° C. in a total assay buffer, where the final volume of the assay is amounted to 100 μl. In accordance with the features of the PDE isozymes, the assay buffer contains 50 mM Tris/HCl (pH 7.4), 3 mM MgCl2, 1 mM dithiothreitol, and 0.05% BSA, and optionally contains 1 uM cAMP with 0.2 μCi [^3H]-cAMP as a substrate alone or in the presence of 0.1 unit calmodulin with 10 μM CaCl2, or 5 μM cGMP, and 1 μM cGMP with 0.2 μCi [^3H]-cGMP as another substrate alone or in the presence of 0.1 unit calmodulin with 10 μM CaCl2.
(§3) The PDE enzyme and the inhibitors (or their solvent) therefor were mixed and incubated on ice for 30 min previously, and then mixed with the assay buffer. The assay was initiated by transferring the mixture to a water bath at 37° C. Following the other 30 min incubation, the reaction was stopped by transferring the reaction vessel to a bath of boiling water for 3 min. After cooling on ice, 20 μl of the 1 mg/ml of Crotalus atrox venom was added to the reaction mixture, and the mixture was incubated at 37° C. for 10 min. The uncatalyzed substrates, such as cAMP, [^3H]-cAMP, cGMP, or [^3H]-cGMP were removed by the addition of 500 μl of a 1-in-1 Tris-HCl (40 mM) buffer suspension of Dowex resin (1×8-200) with incubation on ice for 30 min, since the bindings of the cyclic nucleotides and the resin. Each tube was then centrifuged for 2 min at 6000 rpm, and 100 μl of the supernatant was removed and counted by a β-counter for calculating the enzyme (PDEs) activity.
The dissociation constant of inhibitor binding (Ki) value was determined from the equation of apparent Km as a function of the inhibitor concentration (insert in A and B, respectively). The slope of the equation is equal to the value of […] (where KM is Michaelis constant). The amounts of the total proteins are calculated based on the analytical method reported by Bradford. In FIGS. 1A and 1B, all enzyme activities are shown as nmole of substrate per mg of proteins per minute (nmole/mg/min) hydrolyzed.
(§4) The IC50 values of flavonoids and various reference drugs were calculated using non-linear regression analysis by the software SigmaPlot 7.0 (Sigma Chemical, St. Louis Mo., USA).

PDE5 = PDE5 (Cavia porcellus, UniProt H0VD23); assay: Inhibition of cyclic nucleotide PDE activity (Assay I), PDE5; assay type: biochemical, guinea pig
Description: as §1, with “Proteins bound to the Q-sepharose beads were eluted with various concentrations (0.23, 0.34, 0.44, 0.69, and 1.00 M) of NaCl dissolved in homogenate buffer (for each concentration, 40-50 mL elution buffer were applied) at a flow rate of 30 ml/h. Fractions (3 ml each) were collected, and ethylene glycol (EG) was added thereto until a final concentration of 30% (v/v).” left out
In order to eliminate possible contamination of PDE5 by PDE1, the above-collected fractions with enzyme activity was further purified on a calmodulin-agarose column. The column (1.6 cm×4 cm) was pre-equilibrated by a buffer A, which contains 20 mM Bis-tris, 1 mM dithiothreitol, 2 mM benzamidine, 50 mM NaCl, 3 mMMgCl2, 0.1 mM CaCl2, and 0.1 mM PMSF, pH 6.5. The sample (the mixture of PDE5 and PDE1), being purified by the above-mentioned column, with the CaCl2 concentration thereof adjusted to at least 2 mM previously, was loaded and allowed to be absorbed on the gel for 30 min. Then, the PDE isozymes were eluted by stepwise elution using 20 ml of buffer A with 1 M NaCl followed by 20 ml of buffer A with 1 M NaCl and with 1 mM EGTA.
as §2, §3, §4

[1] = mean ± S.E.M. (n), read-out: IC50 on phosphodiesterase isozyme 5

**Q.** Which IC50 (PDE4) does the source give for `O=c1cc(-c2ccc(O)cc2)oc2cc(O)cc(O)c12` [Apigenin] here?
**A.** > 100 µM

**Q.** And the IC50 (PDE5; [1])?
**A.** > 100 µM

**Q.** `COc1ccc(-c2coc3cc(O)cc(O)c3c2=O)cc1` [Biochanin A] was tested. Which IC50 (PDE5; [1]) did it give?
**A.** > 100 µM

**Q.** What does the source list for `O=c1cc(-c2ccccc2)oc2cc(O)cc(O)c12` [Chrysin]?
**A.** IC50 (PDE4): > 100 µM; IC50 (PDE5; [1]): > 100 µM

**Q.** For `O=c1c(-c2ccc(O)cc2)coc2cc(O)ccc12` [Daidzein], which IC50 (PDE4) is on record?
**A.** > 100 µM

**Q.** What about the IC50 (PDE5; [1]) of the same compound?
**A.** > 100 µM

**Q.** `O=C1CC(c2ccc(O)c(O)c2)Oc2cc(O)cc(O)c21` (stereo not shown) [Eriodictyol] was tested. Which IC50 (PDE4) did it give?
**A.** > 100 µM

**Q.** And the IC50 (PDE5; [1])?
**A.** > 100 µM

**Q.** How did the IC50 (PDE5) turn out when `O=c1c(-c2ccc(O)cc2)coc2cc(O)cc(O)c12` [Genistein] was run?
**A.** 73.9 ± 7.1 µM

**Q.** For `COc1ccc(C2CC(=O)c3c(O)cc(O)cc3O2)cc1O` (stereo not shown) [Hesperetin], which “mode of inhibition of PDE4 enzyme activity” value (PDE4; Lineweaver-Burk plot, cAMP substrate, FIG. 1A) is on record?
**A.** competitively inhibits

**Q.** What about the IC50 (PDE5; [1]) of the same compound?
**A.** > 100 µM

**Q.** How did the IC50 (PDE4) turn out when `O=c1cc(-c2ccc(O)c(O)c2)oc2cc(O[C@@H]3O[C@H](CO)[C@@H](O)[C@H](O)[C@H]3O)cc(O)c12` [Luteolin-7-glucoside] was run?
**A.** 43 ± 5.3 µM

**Q.** What about the IC50 (PDE5; [1]) of the same compound?
**A.** > 100 µM

**Q.** What does the source list for `O=c1cc(-c2ccc(O)c(O)c2)oc2cc(O)cc(O)c12` [Luteolin]?
**A.** IC50 (PDE4): 19.1 ± 2.4 µM; IC50 (PDE5; [1]): 19.3 ± 3.2 µM

**Q.** Which IC50 (PDE5; [1]) does the source give for `O=c1c(O)c(-c2cc(O)c(O)c(O)c2)oc2cc(O)cc(O)c12` [Myricetin] here?
**A.** > 100 µM

**Q.** For `COc1cc(O)c2c(=O)c(-c3ccc(O)cc3)coc2c1` [Prunetin], which IC50 (PDE5) is on record?
**A.** > 100 µM

**Q.** How did the IC50 (PDE5; [1]) turn out when `O=c1c(O)c(-c2ccc(O)c(O)c2)oc2cc(O)cc(O)c12` [Quercetin] was run?
**A.** > 100 µM
